{"source": "paper PMC9578396", "about": "“Intrinsic Antibacterial Activity of Xeruborbactam In Vitro: Assessing Spectrum and Mode of Action” (Antimicrobial Agents and Chemotherapy, 2022)", "key": {"PBP3 [1]": {"target": "PBP3 (Acinetobacter baumannii, UniProt A0ABX6CK25)", "sequence (A0ABX6CK25 entry or part of it)": "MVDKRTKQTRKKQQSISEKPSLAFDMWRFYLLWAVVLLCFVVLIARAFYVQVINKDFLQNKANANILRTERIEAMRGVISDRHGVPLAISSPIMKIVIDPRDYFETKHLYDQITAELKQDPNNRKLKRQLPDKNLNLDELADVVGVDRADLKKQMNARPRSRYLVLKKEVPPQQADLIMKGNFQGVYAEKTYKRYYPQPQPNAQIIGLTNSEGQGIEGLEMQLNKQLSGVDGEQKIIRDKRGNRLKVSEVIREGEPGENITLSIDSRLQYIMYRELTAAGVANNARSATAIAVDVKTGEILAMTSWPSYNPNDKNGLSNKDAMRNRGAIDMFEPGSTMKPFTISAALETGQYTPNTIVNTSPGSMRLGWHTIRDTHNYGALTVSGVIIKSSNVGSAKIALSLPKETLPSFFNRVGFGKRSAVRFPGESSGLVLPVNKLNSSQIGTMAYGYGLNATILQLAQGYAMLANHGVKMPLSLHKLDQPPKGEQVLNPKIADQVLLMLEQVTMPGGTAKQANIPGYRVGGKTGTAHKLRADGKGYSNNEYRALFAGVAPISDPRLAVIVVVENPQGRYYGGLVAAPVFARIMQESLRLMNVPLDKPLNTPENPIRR", "set-up": "method as in earlier work", "conditions": "read-out: IC50, PBP3; value in parentheses; A. baumannii ATCC 19606; cited from earlier work"}, "PBP1a": {"target": "T1, PBP1a (Pseudomonas aeruginosa, UniProt Q07806)", "T1 construct": "endogenous in cells", "T1 sequence (Q07806 whole entry)": "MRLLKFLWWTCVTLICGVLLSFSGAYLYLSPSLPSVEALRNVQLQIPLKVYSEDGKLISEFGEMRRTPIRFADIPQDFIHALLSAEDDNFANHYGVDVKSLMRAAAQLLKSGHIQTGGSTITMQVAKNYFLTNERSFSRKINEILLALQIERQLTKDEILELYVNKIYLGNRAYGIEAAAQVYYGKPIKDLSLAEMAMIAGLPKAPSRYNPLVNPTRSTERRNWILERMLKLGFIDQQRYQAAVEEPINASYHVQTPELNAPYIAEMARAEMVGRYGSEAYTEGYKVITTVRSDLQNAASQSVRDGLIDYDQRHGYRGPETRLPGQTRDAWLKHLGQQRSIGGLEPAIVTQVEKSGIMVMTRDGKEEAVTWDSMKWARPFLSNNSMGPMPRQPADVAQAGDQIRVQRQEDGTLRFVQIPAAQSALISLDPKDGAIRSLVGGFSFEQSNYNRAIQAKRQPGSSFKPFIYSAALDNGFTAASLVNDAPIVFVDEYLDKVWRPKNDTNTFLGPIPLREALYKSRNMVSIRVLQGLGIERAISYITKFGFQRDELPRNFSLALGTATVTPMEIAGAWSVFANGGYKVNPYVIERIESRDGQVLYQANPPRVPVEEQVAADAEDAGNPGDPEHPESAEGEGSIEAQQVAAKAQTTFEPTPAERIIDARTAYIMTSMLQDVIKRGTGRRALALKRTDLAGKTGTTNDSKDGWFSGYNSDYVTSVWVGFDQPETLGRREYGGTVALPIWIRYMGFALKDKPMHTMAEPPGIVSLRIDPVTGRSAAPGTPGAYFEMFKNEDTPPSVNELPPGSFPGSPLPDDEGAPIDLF", "experiment": "Gel-based Bocillin FL competition PBP binding assay", "conditions": "P. aeruginosa PAM3034 membranes; Bocillin FL step 0°C for xeruborbactam, 30°C for beta-lactams; read-out: Relative binding IC50, PBP1a", "description": "(§1) Ten milliliters of overnight bacterial culture was inoculated in 1 L of LB medium and grown to an OD600 of 0.7 to 0.9. The cell pellet was washed once with 50 mL of solution containing 100 mM Na-phosphate at pH 7.0 and 100 mM NaCl and resuspended in 10 mL of the same buffer with one tablet of EDTA-free mini-protease inhibitor and 10 mg of lysozyme. Cell suspensions were incubated for 45 min at 37°C, and then 200 μL of DNase I was added along with MgSO4 (to a final concentration of 10 mM), followed by three cycles of freeze-thawing (10 min and 20 min, respectively). Four cycles of sonication at maximum power were performed next, each cycle lasting for 30 s with 1 min on ice between cycles. The cell suspension was centrifuged at 12,000 × g for 10 min at 4°C. The supernatant was collected and centrifuged at 100,000 × g for 45 min at 4°C. The pellet was washed three times with 10 mL of 100 mM Na-phosphate, pH 7.0, by resuspension and subsequent centrifugation at 100,000 × g for 10 min at 4°C. The pellet was finally resuspended in 1.5 mL of 100 mM Na-phosphate, pH 7.0, and passed several times through a Dounce homogenizer (tight pestle). Membrane preparations were aliquoted and kept at −80°C.\n(§2) Five microliters of total bacterial membrane preparation was mixed with 5 μL of a test compound at a desired concentration in 100 mM Na-phosphate buffer, pH 7.0. Incubation of bacterial membrane preparations with control beta-lactams was performed for 10 min at 30°C; xeruborbactam was incubated with membrane preparations for 1 h at 30°C. Five microliters of 150 μM Bocillin FL fluorescent probe (Thermo Fisher Scientific) was added, and the reaction mixture was incubated for an additional 10 min at 30°C in the case of beta-lactams or for 20 min on ice (0°C) in the case of xeruborbactam. […] At the end of the incubation step, 15 μL of 2× SDS sample loading buffer was added, and the reaction mixture was incubated for 5 min at 95°C. Twenty-five microliters of the reaction mixture was then loaded on an 8% SDS Tris-glycine gel (Thermo Fisher Scientific). At the end of the run, the gel was briefly rinsed with water and fixed in 10% acetic acid, 40% methanol for 20 min. After an additional wash in water for 30 min, the gel was scanned on a Typhoon Trio+ Imager using a blue laser filter (excitation, 488 nm, and emission, 520 nm). Densitometry of the gel images was performed using ImageQuant software (Molecular Dynamics). IC50 values were calculated with Prism software (GraphPad)."}, "PBP3 [2]": {"target": "T2, PBP3 (Pseudomonas aeruginosa, UniProt G3XD46)", "T2 construct": "endogenous in cells", "T2 sequence (G3XD46 whole entry)": "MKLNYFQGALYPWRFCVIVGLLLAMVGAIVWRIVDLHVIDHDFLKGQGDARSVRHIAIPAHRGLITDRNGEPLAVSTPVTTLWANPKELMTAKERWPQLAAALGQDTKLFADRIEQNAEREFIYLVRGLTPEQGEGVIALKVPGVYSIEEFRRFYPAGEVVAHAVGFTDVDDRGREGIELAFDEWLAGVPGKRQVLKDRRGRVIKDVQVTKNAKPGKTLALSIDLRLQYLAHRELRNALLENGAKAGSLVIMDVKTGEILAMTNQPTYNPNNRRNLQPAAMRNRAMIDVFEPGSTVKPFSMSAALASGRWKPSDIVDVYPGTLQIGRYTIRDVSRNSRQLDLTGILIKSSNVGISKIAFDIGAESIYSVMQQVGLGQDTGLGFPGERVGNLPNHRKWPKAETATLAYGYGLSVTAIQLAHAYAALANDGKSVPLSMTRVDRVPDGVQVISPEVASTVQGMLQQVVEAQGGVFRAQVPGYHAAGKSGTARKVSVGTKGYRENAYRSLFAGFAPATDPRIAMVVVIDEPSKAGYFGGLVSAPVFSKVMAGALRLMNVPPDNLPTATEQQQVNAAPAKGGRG", "experiment": "Gel-based Bocillin FL competition PBP binding assay", "conditions": "P. aeruginosa PAM3034 membranes; Bocillin FL step 0°C for xeruborbactam, 30°C for beta-lactams; read-out: Relative binding IC50, PBP3", "description": "as §1, §2"}, "[3]": {"tested_on": "P. aeruginosa strain PAM1154", "experiment": "Fluorescence microscopy, cellular morphology", "format": "cell-based, Pseudomonas aeruginosa", "conditions": "treated at 1× or 2× MIC", "description": "Single colonies of K. pneumoniae strain KPM1026a, A. baumannii strain ATCC 17978, and P. aeruginosa strain PAM1154 were picked from LB agar plates, inoculated in cation-adjusted Mueller-Hinton broth (CA-MHB), and incubated overnight at 30°C with rolling. Overnight cultures were diluted into fresh CA-MHB and incubated at 30°C, with rolling, until they reached an OD600 of ≈0.12 to 0.15 (equivalent to ~2 × 10^8 CFU/mL). Samples were then treated with compounds and incubated at 30°C, with rolling. After 1 or 2 h of treatment, cells were collected and stained with a dye mix containing FM4-64 (1 μg/mL), DAPI (4′,6-diamidino-2-phenylindole) (2 μg/mL), and SYTOX green (0.5 μM) (Molecular Probes, Invitrogen, or Thermo Fisher Scientific). Cells were transferred onto an agarose pad containing 1.2% agarose and 20% LB medium for microscopy. Microscopy was performed as previously described ([34])."}, "[4]": {"tested_on": "Klebsiella pneumoniae strain KPM1026a", "experiment": "Time-kill study", "format": "cell-based"}, "PBP3 [5]": {"target": "T3, PBP3 (Escherichia coli, UniProt P0AD68)", "T3 construct": "endogenous in cells; host or cells: Escherichia coli ECM5497 (MG1655), total membrane preparation", "T3 sequence (P0AD68 whole entry)": "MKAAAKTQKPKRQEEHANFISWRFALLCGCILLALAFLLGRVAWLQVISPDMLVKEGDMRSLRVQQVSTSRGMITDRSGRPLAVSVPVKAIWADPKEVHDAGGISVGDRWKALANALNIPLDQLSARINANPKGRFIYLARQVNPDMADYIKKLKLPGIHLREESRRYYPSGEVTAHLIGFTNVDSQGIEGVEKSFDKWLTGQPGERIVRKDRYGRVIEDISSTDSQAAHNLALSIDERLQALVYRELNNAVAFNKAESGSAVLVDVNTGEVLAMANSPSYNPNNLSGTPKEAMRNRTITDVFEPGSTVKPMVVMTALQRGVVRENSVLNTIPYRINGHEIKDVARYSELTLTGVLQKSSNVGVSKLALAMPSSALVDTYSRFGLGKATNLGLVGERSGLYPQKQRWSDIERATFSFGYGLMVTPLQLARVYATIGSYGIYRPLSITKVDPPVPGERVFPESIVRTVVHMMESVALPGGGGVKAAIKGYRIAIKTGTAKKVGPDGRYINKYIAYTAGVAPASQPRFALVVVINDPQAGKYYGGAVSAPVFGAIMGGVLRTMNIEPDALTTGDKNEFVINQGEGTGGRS", "experiment": "Gel-based Bocillin FL competition PBP binding assay", "description": "as §1, with “Membrane preparations were aliquoted and kept at −80°C.” left out\n(§3) Five microliters of total bacterial membrane preparation was mixed with 5 μL of a test compound at a desired concentration in 100 mM Na-phosphate buffer, pH 7.0. […] IC50 values were calculated with Prism software (GraphPad)."}, "[6]": {"target": "PBP1a/PBP1b, PBP2, and PBP3", "experiment": "Bocillin FL competition PBP binding assay, summary for two species", "conditions": "PBP2, and PBP3 from E. coli and K. pneumoniae, read-out: IC50 range", "description": "as §1, with “Membrane preparations were aliquoted and kept at −80°C.” left out\nas §3"}}}
{"smiles": "C[C@@H](O)[C@H]1C(=O)N2C(C(=O)O)=C(S[C@@H]3CN[C@H](C(=O)N(C)C)C3)[C@H](C)[C@H]12", "note": "[Meropenem]", "values": [{"measurement": "IC50", "setting": "PBP3 [1]", "result": 0.33, "unit": "µM"}, {"measurement": "IC50", "setting": "PBP1a", "result": 0.17, "unit": "µM"}]}
{"smiles": "O=C(O)c1c(F)ccc2c1OB(O)[C@@H]1C[C@H]21", "note": "[Xeruborbactam]", "values": [{"measurement": "IC50", "setting": "PBP3 [2]", "result": "510 ± 120", "unit": "µM"}, {"measurement": "cellular morphology", "setting": "[3]", "result": "filamentation and bulge formation at midcell and eventual cell lysis from the midpoint"}, {"measurement": "kinetics of killing", "setting": "[4]", "result": "time-dependent, concentration-independent bacterial killing"}, {"measurement": "IC50", "setting": "PBP3 [5]", "result": "73 ± 10", "unit": "µM"}, {"measurement": "IC50", "setting": "[6]", "result": "40 to 70", "unit": "µM"}]}
